Assay results from the CheMixHub viscosity set.

Assay: xn = mol fraction of the nth substance listed

CC(O)C(=O)O (stereo not drawn) + CC(C)[C@@H]1CC[C@@H](C)C[C@H]1O
100 kPa, x2 = 0.67
Conditions	viscosity [mPa·s]
293.15 K	370.9
298.15 K	218.9
303.15 K	134.3
308.15 K	86.53
313.15 K	58.84
318.15 K	40.71
323.15 K	29.47

CCc1ccccc1 + CCC(C)=O
298.15 K, 101.33 kPa
Conditions	viscosity [mPa·s]
x1 = 0.0811	0.397
x1 = 0.1608	0.416
x1 = 0.2397	0.433
x1 = 0.347	0.459
x1 = 0.4606	0.487
x1 = 0.5818	0.516
x1 = 0.7041	0.548
x1 = 0.8394	0.587

Clc1ccccc1 + CCC(C)=O
303.15 K, 101 kPa
Conditions	viscosity [mPa·s]
x2 = 0.0982	0.686
x2 = 0.247	0.636
x2 = 0.3771	0.593
x2 = 0.5481	0.541
x2 = 0.6776	0.499
x2 = 0.8508	0.482

COC(C)(C)C + CCC(C)O
298.15 K, 101 kPa
Conditions	viscosity [mPa·s]
x1 = 0.0999	2.16
x1 = 0.1992	1.57
x1 = 0.2992	1.16
x1 = 0.3976	0.91
x1 = 0.503	0.725
x1 = 0.6017	0.609
x1 = 0.6989	0.518
x1 = 0.7986	0.443
x1 = 0.8979	0.384

COCCOCCOCCOCCOC + CCC(C)O
viscosity [mPa·s]
Conditions	298.15 K	308.15 K	318.15 K	323.15 K
101 kPa, x1 = 0.0018	3.082	2.157	1.554	–
101 kPa, x1 = 0.0046	3.032	2.132	1.544	–
101 kPa, x1 = 0.0146	2.91	2.069	1.515	–
101 kPa, x1 = 0.0257	2.787	2.024	1.493	–
101 kPa, x1 = 0.0738	2.439	1.834	1.408	–
101 kPa, x1 = 0.0988	–	1.777	1.368	–
101.3 kPa, x2 = 0.5011	–	–	–	1.495
101.3 kPa, x2 = 0.6997	–	–	1.445	–

COCCOCCOCCOCCOC + CCCC(C)O
viscosity [mPa·s], 101 kPa
Conditions	x1 = 0.0055	x1 = 0.0094	x1 = 0.0147	x1 = 0.0256	x1 = 0.0397	x1 = 0.0606	x1 = 0.0791	x1 = 0.0929	x1 = 0.1008
298.15 K	3.301	3.26	3.223	3.071	2.91	2.75	2.641	2.58	2.55
308.15 K	2.291	2.274	2.25	2.203	2.117	2.046	1.977	1.94	1.91
318.15 K	1.658	1.638	1.631	1.622	1.575	1.533	1.524	1.497	1.48

C=CC(=O)OCC + CCCCC(C)O
viscosity [mPa·s], 101 kPa
Conditions	298.15 K	308.15 K
x1 = 0.05505	3.659	2.636
x1 = 0.09982	3.336	2.426
x1 = 0.1555	2.973	2.188
x1 = 0.1998	2.712	2.015
x1 = 0.2555	2.417	1.817
x1 = 0.2999	2.205	1.673
x1 = 0.3554	1.965	1.509
x1 = 0.3999	1.793	1.389
x1 = 0.4555	1.598	1.253
x1 = 0.4999	1.458	1.154
x1 = 0.5556	1.299	1.04
x1 = 0.5999	1.185	0.958
x1 = 0.6554	1.056	0.864
x1 = 0.6995	0.964	0.797
x1 = 0.7554	0.859	0.718
x1 = 0.7999	0.783	0.661
x1 = 0.8555	0.698	0.596
x1 = 0.8999	0.637	0.549
x1 = 0.9555	0.568	0.495

CCc1ccccc1 + CCCCCC
viscosity [mPa·s], 101 kPa
Conditions	x2 = 0.14	x2 = 0.247	x2 = 0.337	x2 = 0.486	x2 = 0.641	x2 = 0.731
298.15 K	0.56	0.51	0.47	0.416	–	0.339
308.15 K	0.499	0.454	0.421	0.371	0.326	0.302
323.15 K	0.426	0.39	0.363	0.321	0.283	0.263

COC(C)(C)C + CCCCCC
303.15 K, 101 kPa
Conditions	viscosity [mPa·s]
x1 = 0.1579	0.314
x1 = 0.2829	0.318
x1 = 0.3671	0.321
x1 = 0.4436	0.323
x1 = 0.5404	0.327
x1 = 0.604	0.33
x1 = 0.7122	0.335
x1 = 0.8674	0.342

Clc1ccccc1 + CCCCCC
viscosity [mPa·s], 101.33 kPa
Conditions	x2 = 0.0793	x2 = 0.1624	x2 = 0.2494	x2 = 0.3407	x2 = 0.4367	x2 = 0.5377	x2 = 0.644	x2 = 0.7562	x2 = 0.8747
303.15 K	0.6623	0.6095	0.5578	0.5101	0.4658	0.4254	0.3927	0.3549	0.3227
313.15 K	0.6011	0.5513	0.5124	0.4699	0.4288	0.3946	0.3647	0.3305	0.3021
323.15 K	0.5314	0.4893	0.4543	0.4164	0.3835	0.3551	0.3268	0.2997	0.2745

CCCCCCCCCCCCCCCCCCCCCC + CCCCCCC
viscosity [mPa·s], 101.3 kPa
Conditions	x1 = 0.2	x1 = 0.4	x1 = 0.479	x1 = 0.596	x1 = 0.798
303.2 K	0.9761	–	–	–	–
313.2 K	0.8502	1.621	2.137	–	–
323.1 K	0.7493	1.39	1.826	2.449	3.197

COC(C)(C)C + CCCCCCC
303.15 K, 101 kPa
Conditions	viscosity [mPa·s]
x1 = 0.1976	0.373
x1 = 0.2745	0.369
x1 = 0.3423	0.364
x1 = 0.4536	0.359
x1 = 0.5656	0.356
x1 = 0.6441	0.353
x1 = 0.7685	0.35
x1 = 0.8606	0.349

COC(C)(C)C + CCCCCCCC
viscosity [mPa·s], 101 kPa
Conditions	293.15 K	298.15 K	303.15 K	308.15 K
x1 = 0.0937	0.5238	0.5009	0.4686	0.4492
x1 = 0.1345	–	–	0.444	–
x1 = 0.1875	0.5065	0.4844	0.454	0.4355
x1 = 0.2831	–	–	0.423	–
x1 = 0.2942	0.4873	0.4666	0.4382	0.4201
x1 = 0.3682	–	–	0.417	–
x1 = 0.412	0.4668	0.447	0.4207	0.4035
x1 = 0.4989	–	–	0.406	–
x1 = 0.511	0.4502	0.4313	0.4067	0.3903
x1 = 0.5482	–	–	0.401	–
x1 = 0.5952	0.4367	0.4189	0.3957	0.3793
x1 = 0.699	0.4201	0.4027	0.3811	0.3653
x1 = 0.791	–	–	0.388	–
x1 = 0.7965	0.4039	0.3871	–	0.3518
x1 = 0.8407	–	–	0.381	–
x1 = 0.9009	0.3867	0.3707	0.3523	0.3376

CCCCCCCCCCCCCCCCCCCCCC + CCCCCCCCCC
viscosity [mPa·s], 101.3 kPa
Conditions	x2 = 0.4	x2 = 0.5	x2 = 0.6	x2 = 0.799
303.2 K	–	–	–	1.47
313.2 K	2.93	2.53	2.05	1.24

Clc1ccccc1 + CCCCCCCCCC
viscosity [mPa·s], 101 kPa
Conditions	x1 = 0.1146	x1 = 0.1985	x1 = 0.31	x1 = 0.3792	x1 = 0.4894	x1 = 0.6146	x1 = 0.6949	x1 = 0.8073	x1 = 0.9173
308.15 K	0.7161	0.703	0.6849	0.6723	0.6588	0.6526	0.6521	0.6598	0.6691
313.15 K	0.6733	0.6572	0.6458	0.6387	0.6287	0.624	0.6222	0.6228	0.6302

CCCC(C)C + CCCCCCCCCCCC
298 K, 101.33 kPa
Conditions	viscosity [mPa·s]
x1 = 0.1004	1.205
x1 = 0.2007	1.075
x1 = 0.3018	0.939
x1 = 0.4027	0.8181
x1 = 0.5008	0.7124
x1 = 0.6002	0.6097
x1 = 0.6996	0.5148
x1 = 0.8002	0.4229
x1 = 0.9003	0.3443

CCCC(C)C + CCCCCCCCCCCCCC
298 K, 101.33 kPa
Conditions	viscosity [mPa·s]
x1 = 0.1041	1.795
x1 = 0.2003	1.595
x1 = 0.3021	1.362
x1 = 0.4053	1.136
x1 = 0.5024	0.9502
x1 = 0.6012	0.7806
x1 = 0.7022	0.6276
x1 = 0.8003	0.4899
x1 = 0.8985	0.3762

CCCC(C)C + CCCCCCCCCCCCCCCC
298 K, 101.33 kPa
Conditions	viscosity [mPa·s]
x1 = 0.1177	2.572
x1 = 0.2071	2.199
x1 = 0.3082	1.835
x1 = 0.4013	1.53
x1 = 0.4982	1.241
x1 = 0.6029	0.9821
x1 = 0.7034	0.7606
x1 = 0.8025	0.5679
x1 = 0.9006	0.3949

CCc1ccccc1 + CCCCCCCCCCO
viscosity [mPa·s], 101 kPa
Conditions	298.15 K	308.15 K
x1 = 0.0666	9.53	6.54
x1 = 0.1392	7.494	5.177
x1 = 0.1932	6.24	4.343
x1 = 0.2642	4.904	3.44
x1 = 0.3355	3.841	2.703
x1 = 0.3936	3.152	2.225
x1 = 0.4483	2.623	1.883
x1 = 0.5238	2.056	1.499
x1 = 0.598	1.632	1.206
x1 = 0.6621	1.35	1.023
x1 = 0.7309	1.118	0.863
x1 = 0.7953	0.951	0.744
x1 = 0.8668	0.802	0.659
x1 = 0.9396	0.693	0.597
